According to ChEMBL document CHEMBL1140322, “New pyrrolo[2,1-f]purine-2,4-dione and imidazo[2,1-f]purine-2,4-dione derivatives as potent and selective human A3 adenosine receptor antagonists” (J Med Chem, 2005):

Tests used:
[1] = target: Adenosine receptors; A1 & A3 (Homo sapiens) (UniProt P30542+P0DMS8); test: Relative binding affinity for human adenosine A1 and A3 receptors; format: protein assay
Adenosine receptor A2a = Adenosine receptor A2a (Homo sapiens, UniProt P29274); test: Inhibition of [3H]-ZM 241385 binding to human adenosine A2a receptor expressed in CHO cells; format: cell-based
Sequence of Adenosine receptor A2a (P29274 whole entry): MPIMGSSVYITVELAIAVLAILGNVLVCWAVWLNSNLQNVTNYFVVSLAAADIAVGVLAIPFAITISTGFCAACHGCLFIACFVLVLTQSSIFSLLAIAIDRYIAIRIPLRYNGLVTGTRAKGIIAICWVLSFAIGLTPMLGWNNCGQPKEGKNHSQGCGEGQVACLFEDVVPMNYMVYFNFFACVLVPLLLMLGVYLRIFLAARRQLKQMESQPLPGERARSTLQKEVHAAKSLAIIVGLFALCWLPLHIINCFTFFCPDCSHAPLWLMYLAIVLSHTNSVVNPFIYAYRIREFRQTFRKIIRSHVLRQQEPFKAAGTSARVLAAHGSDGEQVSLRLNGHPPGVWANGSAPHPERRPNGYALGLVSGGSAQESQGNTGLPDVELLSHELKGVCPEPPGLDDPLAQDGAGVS

Adenosine receptor A2b = target: T1, Adenosine receptor A2b (Homo sapiens, UniProt P29275); test: Inhibition of 100 nM NECA-stimulated cAMP production in CHO cells expressing human adenosine A2B receptor; format: functional, cell-based
T1 sequence (P29275 whole entry): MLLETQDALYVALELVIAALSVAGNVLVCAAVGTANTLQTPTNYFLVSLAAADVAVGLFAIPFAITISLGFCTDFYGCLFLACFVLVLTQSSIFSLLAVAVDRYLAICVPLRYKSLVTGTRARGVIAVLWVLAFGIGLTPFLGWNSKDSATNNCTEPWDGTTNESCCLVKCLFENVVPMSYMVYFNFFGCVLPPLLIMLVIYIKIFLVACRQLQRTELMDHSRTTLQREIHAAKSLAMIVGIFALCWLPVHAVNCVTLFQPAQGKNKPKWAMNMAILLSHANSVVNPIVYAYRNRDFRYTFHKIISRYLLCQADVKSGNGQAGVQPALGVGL

[2] = target: Adenosine receptors; A2a & A3 (Homo sapiens) (UniProt P0DMS8+P29274); test: Relative binding affinity for human adenosine A2a and A3 receptors; format: protein assay
Adenosine receptor A1 = target: T2, Adenosine receptor A1 (Homo sapiens, UniProt P30542); test: Inhibition of [3H]DPCPX binding to human adenosine A1 receptor expressed in CHO cells; format: cell-based
T2 sequence (P30542 whole entry): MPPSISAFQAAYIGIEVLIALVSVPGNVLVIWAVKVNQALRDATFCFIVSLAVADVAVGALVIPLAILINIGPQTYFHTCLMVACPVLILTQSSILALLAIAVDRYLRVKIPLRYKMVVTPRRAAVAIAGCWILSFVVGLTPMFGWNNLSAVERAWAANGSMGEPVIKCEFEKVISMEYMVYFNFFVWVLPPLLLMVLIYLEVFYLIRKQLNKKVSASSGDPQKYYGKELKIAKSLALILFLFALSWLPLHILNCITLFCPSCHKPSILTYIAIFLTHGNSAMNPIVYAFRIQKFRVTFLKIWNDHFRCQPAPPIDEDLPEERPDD

[3] = target: Adenosine receptors; A2b & A3 (Homo sapiens) (UniProt P29275+P0DMS8); test: Relative binding affinity for human adenosine A2b and A3 receptors; format: protein assay

Sequence of Adenosine receptors; A1 & A3 (Homo sapiens) (P0DMS8 whole entry, looked up, one chain of several): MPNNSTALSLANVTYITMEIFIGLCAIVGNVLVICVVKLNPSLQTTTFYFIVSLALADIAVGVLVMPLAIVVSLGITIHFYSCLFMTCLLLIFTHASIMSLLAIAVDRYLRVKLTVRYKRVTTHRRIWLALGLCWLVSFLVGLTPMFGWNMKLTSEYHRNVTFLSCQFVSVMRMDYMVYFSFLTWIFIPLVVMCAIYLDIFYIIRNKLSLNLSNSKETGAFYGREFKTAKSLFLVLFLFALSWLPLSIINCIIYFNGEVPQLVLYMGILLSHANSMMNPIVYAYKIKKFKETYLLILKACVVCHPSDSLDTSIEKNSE

Selectivity [1] | Ki (Adenosine receptor A2a) | IC50 (Adenosine receptor A2b) | Selectivity [2] | Ki (Adenosine receptor A1) | Selectivity [3] | Compound
> 2 | > 1 µM | > 1 µM | > 2 | > 1 µM |  | CCCn1c(=O)c2c(nc3[nH]c(C4CCCCC4)cn32)n(Cc2ccccc2)c1=O
> 18 | > 1 µM |  | > 18 | > 1 µM |  | CCCn1c(=O)c2c(nc3[nH]c(-c4ccc(OC)cc4)cn32)n(Cc2ccccc2)c1=O
 | > 1 µM |  |  | > 1 µM |  | CCCn1c(=O)c2c(nc3[nH]c(-c4ccc(-c5ccccc5)cc4)cn32)n(Cc2ccccc2)c1=O
15 | > 1 µM | > 1 µM | > 44 |  | > 44 | CCCn1c(=O)c2c(nc3[nH]c(C4CC4)cn32)n(Cc2ccccc2)c1=O
 |  | > 1 µM |  |  |  | CCCn1c(=O)c2c(nc3[nH]c(C)cn32)n(Cc2ccccc2)c1=O

Further lines, the compound ahead of its results:

Compound | Selectivity [1] | Ki (Adenosine receptor A2a) | IC50 (Adenosine receptor A2b) | Selectivity [2] | Ki (Adenosine receptor A1) | Selectivity [3]
CCCn1c(=O)c2c(nc3[nH]c(-c4ccccc4)cn32)n(Cc2ccccc2)c1=O | > 9 | > 1 µM |  | > 9 | > 1 µM | 
CCCn1c(=O)c2c(nc3n2CC(CC)=C3)n(Cc2ccccc2)c1=O |  |  | > 1 µM |  |  | 
CCCn1c(=O)c2c(nc3[nH]c(-c4ccc(F)cc4)cn32)n(Cc2ccccc2)c1=O | > 45 | > 1 µM |  | > 45 | > 1 µM | 
CCCn1c(=O)c2c(nc3n2C(C)C(C)=C3)n(Cc2ccccc2)c1=O (stereo not given) | > 13 | > 1 µM | > 1 µM | > 13 | > 1 µM | > 13
CCCn1c(=O)c2c(nc3n2CC(C)=C3)n(Cc2ccccc2)c1=O | > 125 | > 1 µM |  | > 125 | > 1 µM | 50
CCCn1c(=O)c2c(nc3[nH]c(C)c(C)n32)n(Cc2ccccc2)c1=O | > 28 | > 1 µM | > 1 µM | > 28 | > 1 µM | > 28
CCCn1c(=O)c2c(nc3[nH]c(C(C)(C)C)cn32)n(Cc2ccccc2)c1=O | > 10 | > 1 µM | > 1 µM | > 10 | > 1 µM | > 10
CCCn1c(=O)c2c(nc3[nH]c(CC)c(C)n32)n(Cc2ccccc2)c1=O | > 17 | > 1 µM | > 1 µM | > 17 | > 1 µM | > 17
CCCn1c(=O)c2c(nc3[nH]c(CC)cn32)n(Cc2ccccc2)c1=O | > 67 | > 1 µM | > 1 µM | > 67 | > 1 µM | > 67
CCCn1c(=O)c2c(nc3n2CC(c2ccccc2)=C3)n(Cc2ccccc2)c1=O | > 5 | > 1 µM |  | > 5 | > 1 µM | 
CCCn1c(=O)c2c(nc3[nH]c(C(C)C)cn32)n(Cc2ccccc2)c1=O | > 15 | > 1 µM | > 1 µM | > 32 |  | > 32
